Data as given in patent US20100160369A1, “S1P1 Agonists and Methods of Making And Using” (EXELIXIS, INC., priority 2008, published 2010).
Like-named read-outs stand apart in the source and are kept apart here.

Biological target: S1P1 (Homo sapiens, UniProt P21453)
Experiment: Tango β-arrestin Recruitment Assay in U2OS cells (Assay 2b)
Assay type: cell-based
Design: linker with TEV protease (N1a) cleavage site (C)
Conditions: Tango β-arrestin Recruitment Assay
Excerpt: For the Tango™ β-arrestin recruitment assay, the cytoplasmic C-terminus of S1P1 is tethered to the tTA transcriptional activator with a linker that contains a cleavage site for the N1a protease from tobacco etch virus (TEV protease). The C-terminus of the human β-arrestin2 protein is fused to TEV protease. Binding of an agonist recruits the β-arrestin-TEV fusion protein to the receptor resulting in cleavage of the linker and release of tTA to enter the nucleus and subsequently activate a tTA-dependent luciferase reporter gene.
Alternatively, U2OS cells expressing the reporter gene and S1P1 (Invitrogen) were added to the wells of a 384-well white opaque bottom assay plate (PerkinElmer) at […] per well. The cells were serum starved for 48 h in Freestyle medium (Invitrogen). Test compounds were tested at maximum concentrations of 1 μM for the agonist assay. Compounds were diluted in DMSO (10 concentration points, 3-fold each) and added to the assay plate at a 1% final DMSO concentration. The efficacy control was 1 μM S1P (Avanti). For each compound, there were duplicate assay plates and each assay plate had duplicate wells per concentration point. The plate was incubated overnight at 37° C. The GeneBLAzer β-lactamase assay reagent (Invitrogen) was added and the plates were incubated for an additional 2 h at room temperature. Fluorescence was measured using an EnVision plate reader (PerkinElmer, Waltham, Mass.) at an excitation wavelength of 409 nm and emission wavelengths of 460 nm and 530 nm. The emission intensity at each wavelength was background subtracted against wells containing medium only and the F460 nm/F530 nm ratio determined for each concentration of the test compounds. Percent activity was calculated as [(test compound ratio−DMSO ratio)/(positive control ratio−DMSO ratio)*100], where the positive control and DMSO ratios are from cells incubated with the efficacy control 1 μM S1P and 1% DMSO, respectively. The percent activities were plotted against compound concentration to determine EC50 using XLFit (IDBS).
Assay 1 is the CNG cAMP Assay as described in Biological Example 1. Assay 2a and 2b are the Tango™ β-arrestin Recruitment Assay in HEK293 and U2OS cells, respectively, as described in Biological Example 2. Assay 3a is the hS1P1R GTPγS Binding Assay as described in Biological Example 3. Assay 3b is the GTP-Eu Binding Assay as described in Biological Example 3. EC50's were measured unless otherwise noted. […] In the table, “nt” means the Compound was not tested and “no” means the compound was tested but had no measurable activity under the assay conditions employed.

[1] = footnote 1: Relative EC50 was measured, read-out: Assay 2b relative EC50

S1P1, sequence (P21453 whole entry): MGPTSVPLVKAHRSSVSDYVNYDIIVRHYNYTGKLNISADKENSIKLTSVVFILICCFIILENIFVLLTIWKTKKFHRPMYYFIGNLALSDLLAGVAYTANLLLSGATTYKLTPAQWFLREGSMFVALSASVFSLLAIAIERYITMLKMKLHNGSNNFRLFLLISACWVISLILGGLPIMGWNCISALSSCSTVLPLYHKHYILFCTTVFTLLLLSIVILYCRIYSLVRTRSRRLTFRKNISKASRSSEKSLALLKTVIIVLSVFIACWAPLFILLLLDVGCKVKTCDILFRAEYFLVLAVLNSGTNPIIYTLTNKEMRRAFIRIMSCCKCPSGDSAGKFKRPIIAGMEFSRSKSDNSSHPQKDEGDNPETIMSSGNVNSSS
S1P1, sequence (P32121 whole entry partner): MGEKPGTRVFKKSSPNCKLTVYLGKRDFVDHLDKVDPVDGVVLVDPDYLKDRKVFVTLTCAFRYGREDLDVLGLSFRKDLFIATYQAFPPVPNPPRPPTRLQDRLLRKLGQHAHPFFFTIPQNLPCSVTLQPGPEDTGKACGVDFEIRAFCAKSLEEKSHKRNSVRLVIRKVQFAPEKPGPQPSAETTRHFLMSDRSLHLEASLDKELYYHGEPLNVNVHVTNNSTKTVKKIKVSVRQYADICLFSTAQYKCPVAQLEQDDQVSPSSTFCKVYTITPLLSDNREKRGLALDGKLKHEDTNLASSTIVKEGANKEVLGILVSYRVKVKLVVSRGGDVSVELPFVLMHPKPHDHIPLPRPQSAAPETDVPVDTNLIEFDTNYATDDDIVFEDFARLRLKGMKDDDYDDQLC

`CC(CCc1cc(Cl)c(-c2noc(-c3cn4cc(C(F)(F)F)cc(Cl)c4n3)n2)cc1Cl)OP(=O)(O)O` (stereo not shown) [Example 221, 3-(2,5-dichloro-4-{5-[8-chloro-6-(trifluoromethyl)imidazo[1,2-a]pyridin-2-yl]-1,2,4-oxadiazol-3-yl}phenyl)-1-methylpropyl dihydrogen phosphate] gave an EC50 (read-out: Assay 2b EC50) of at most 100 nM.
For `COC(=O)C(C)(O)COc1cc(Cl)c(-c2noc(-c3cn4cc(C(F)(F)F)cc(Cl)c4n3)n2)cc1Cl` (stereo not shown) [Example 319, methyl 3-[(2,5-dichloro-4-{5-[8-chloro-6-(trifluoromethyl)imidazo[1,2-a]pyridin-2-yl]-1,2,4-oxadiazol-3-yl}phenyl)oxy]-2-hydroxy-2-methylpropanoate], the EC50 [1] was 100 to 500 nM.
With `CC(O)COc1cc(Cl)c(-c2nnc(-c3cn4cc(C(F)(F)F)cc(Cl)c4n3)o2)cc1F` (stereo not shown) [Example 179, 1-[(5-chloro-4-{5-[8-chloro-6-(trifluoromethyl)imidazo[1,2-a]pyridin-2-yl]-1,3,4-oxadiazol-2-yl}-2-fluorophenyl)oxy]propan-2-ol] the EC50 (read-out: Assay 2b EC50) was 100 to 500 nM.
`O=P(O)(O)OC(CO)COc1cc(Cl)c(-c2noc(-c3cn4cc(C(F)(F)F)cc(Cl)c4n3)n2)cc1Cl` (stereo not shown) [Entry 9] showed an EC50 (read-out: Assay 2b EC50) of at most 100 nM.
Work on `O=C(O)CCc1c(F)cc(-c2noc(-c3cn4cc(C(F)(F)F)cc(Cl)c4n3)n2)cc1Cl` [Example 296, 3-(2-chloro-4-{5-[8-chloro-6-(trifluoromethyl)imidazo[1,2-a]pyridin-2-yl]-1,2,4-oxadiazol-3-yl}-6-fluorophenyl)propanoic acid] yielded an EC50 (read-out: Assay 2b EC50) of at most 100 nM.
Work on `O=P(O)(O)COc1cc(Cl)c(-c2noc(-c3cn4cc(C(F)(F)F)cc(Cl)c4n3)n2)cc1Cl` [Entry 52] yielded an EC50 (read-out: Assay 2b EC50) of at most 100 nM.
`OCCNc1cc(Cl)c(-c2noc(-c3cn4cc(C(F)(F)F)cc(Cl)c4n3)n2)cc1F` [Example 308, 2-[(5-chloro-4-{5-[8-chloro-6-(trifluoromethyl)imidazo[1,2-a]pyridin-2-yl]-1,2,4-oxadiazol-3-yl}-2-fluorophenyl)amino]ethanol] was tested, and the EC50 (read-out: Assay 2b EC50) was at most 100 nM.
`C[C@H](COc1cc(Cl)c(-c2noc(-c3cn4cc(C(F)(F)F)cc(Cl)c4n3)n2)cc1Cl)OP(=O)(O)O` [Example 328, (1R)-2-[(2,5-dichloro-4-{5-[8-chloro-6-(trifluoromethyl)imidazo[1,2-a]pyridin-2-yl]-1,2,4-oxadiazol-3-yl}phenyl)oxy]-1-methylethyl dihydrogen phosphate] gave an EC50 (read-out: Assay 2b EC50) of at most 100 nM.
In the case of `C[C@H](CO)Oc1cc(Cl)c(-c2noc(-c3cn4cc(C(F)(F)F)cc(Cl)c4n3)n2)cc1Cl` [Example 155, (2R)-2-[(2,5-dichloro-4-{5-[8-chloro-6-(trifluoromethyl)imidazo[1,2-a]pyridin-2-yl]-1,2,4-oxadiazol-3-yl}phenyl)oxy]propan-1-ol], the EC50 (read-out: Assay 2b EC50) is reported as at most 100 nM.
`CC(O)COc1cc(Cl)c(-c2nnc(-c3cn4cc(C(F)(F)F)cc(Cl)c4n3)s2)cc1Cl` (stereo not shown) [Entry 13] gave an EC50 (read-out: Assay 2b EC50) of at most 100 nM.
With `CC(N)COc1cc(Cl)c(-c2nnc(-c3cn4cc(C(F)(F)F)ccc4n3)s2)cc1Cl` (stereo not shown) [Example 340, 1-[(2,5-dichloro-4-{5-[6-(trifluoromethyl)imidazo[1,2-a]pyridin-2-yl]-1,3,4-thiadiazol-2-yl}phenyl)oxy]propan-2-amine] the EC50 [1] was 5000 to 10000 nM.
Work on `O=C(COc1cc(Cl)c(-c2noc(-c3cn4cc(C(F)(F)F)cc(Cl)c4n3)n2)cc1Cl)COP(=O)(O)O` [Entry 51] yielded an EC50 (read-out: Assay 2b EC50) of at most 100 nM.
`NC(CO)COc1cc(Cl)c(-c2nnc(-c3cn4cc(Cl)ccc4n3)s2)cc1F` (stereo not shown) [Example 101, 2-amino-3-({5-chloro-4-[5-(6-chloroimidazo[1,2-a]pyridin-2-yl)-1,3,4-thiadiazol-2-yl]-2-fluorophenyl}oxy)propan-1-ol] showed an EC50 (read-out: Assay 2b EC50) of at most 100 nM.
`C[C@@H](CO)Oc1cc(Cl)c(-c2noc(-c3cn4cc(C(F)(F)F)cc(Cl)c4n3)n2)cc1Cl` [Example 156, (2S)-2-[(2,5-dichloro-4-{5-[8-chloro-6-(trifluoromethyl)imidazo[1,2-a]pyridin-2-yl]-1,2,4-oxadiazol-3-yl}phenyl)oxy]propan-1-ol] was tested, and the EC50 (read-out: Assay 2b EC50) was at most 100 nM.
Compound `N[C@H](CO)COc1cc(Cl)c(-c2nnc(-c3cn4cc(C(F)(F)F)cc(Cl)c4n3)s2)cc1Cl` [Example 420, (2R)-2-amino-3-[(2,5-dichloro-4-{5-[8-chloro-6-(trifluoromethyl)imidazo[1,2-a]pyridin-2-yl]-1,3,4-thiadiazol-2-yl}phenyl)oxy]propan-1-ol] has an EC50 (read-out: Assay 2b EC50) of 100 to 500 nM.
`OCC(CO)NCCOc1cc(Cl)c(-c2noc(-c3cn4cc(C(F)(F)F)cc(Cl)c4n3)n2)cc1Cl` [Entry 65] showed an EC50 (read-out: Assay 2b EC50) of at most 100 nM.
`N[C@@H](CO)COc1cc(Cl)c(-c2nnc(-c3cn4cc(C(F)(F)F)ccc4n3)s2)cc1F` [Example 309, (2S)-2-amino-3-[(5-chloro-2-fluoro-4-{5-[6-(trifluoromethyl)imidazo[1,2-a]pyridin-2-yl]-1,3,4-thiadiazol-2-yl}phenyl)oxy]propan-1-ol] showed an EC50 (read-out: Assay 2b EC50) of at most 100 nM.
`CC(O)CNc1cc(Cl)c(-c2noc(-c3cn4cc(C(F)(F)F)cc(Cl)c4n3)n2)cc1Cl` (stereo not shown) [Example 323, 1-[(2,5-dichloro-4-{5-[8-chloro-6-(trifluoromethyl)imidazo[1,2-a]pyridin-2-yl]-1,2,4-oxadiazol-3-yl}phenyl)amino]propan-2-ol] showed an EC50 (read-out: Assay 2b EC50) of at most 100 nM.
`CC(O)COc1cc(Cl)c(-c2noc(-c3cn4cc(C(F)(F)F)cc(Br)c4n3)n2)cc1Cl` (stereo not shown) [Example 316, 1-[(4-{5-[8-bromo-6-(trifluoromethyl)imidazo[1,2-a]pyridin-2-yl]-1,2,4-oxadiazol-3-yl}-2,5-dichlorophenyl)oxy]propan-2-ol] gave an EC50 (read-out: Assay 2b EC50) of at most 100 nM.
Compound `O=C(O)CC(=O)COc1cc(Cl)c(-c2noc(-c3cn4cc(C(F)(F)F)cc(Cl)c4n3)n2)cc1Cl` [Entry 5] has an EC50 (read-out: Assay 2b EC50) of at most 100 nM.
`Nc1cc(Cl)c(-c2noc(-c3cn4cc(C(F)(F)F)cc(Cl)c4n3)n2)cc1Cl` [Example 337, 2,5-dichloro-4-{5-[8-chloro-6-(trifluoromethyl)imidazo[1,2-a]pyridin-2-yl]-1,2,4-oxadiazol-3-yl}aniline] was tested, and the EC50 (read-out: Assay 2b EC50) was 100 to 500 nM.
`CC(O)COc1cc(Cl)c(-c2nnc(-c3cn4cc(C(F)(F)F)cc(Cl)c4n3)o2)cc1Cl` (stereo not shown) [Entry 4] showed an EC50 (read-out: Assay 2b EC50) of at most 100 nM.
`NCC(O)COc1cc(Cl)c(-c2nnc(-c3cn4cc(C(F)(F)F)cc(Cl)c4n3)s2)cc1Cl` (stereo not shown) [Example 336, 1-amino-3-[(2,5-dichloro-4-{5-[8-chloro-6-(trifluoromethyl)imidazo[1,2-a]pyridin-2-yl]-1,3,4-thiadiazol-2-yl}phenyl)oxy]propan-2-ol] was tested, and the EC50 (read-out: Assay 2b EC50) was at most 100 nM.
Compound `NC(CO)COc1cc(Cl)c(-c2nnc(-c3cn4cc(C(F)(F)F)ccc4n3)s2)cc1Cl` (stereo not shown) [Example 100, 2-amino-3-[(2,5;dichloro-4-{5-[6-(trifluomethyl)imidazo[1,2-a]pyridin-2-yl] 1,3,4-thiadiazol-2-yl}phenyl)oxy]propan-1-ol] has an EC50 (read-out: Assay 2b EC50) of at most 100 nM.
With `CC(N)(CO)COc1cc(Cl)c(-c2nnc(-c3cn4cc(C(F)(F)F)ccc4n3)s2)cc1F` (stereo not shown) [Entry 44] the EC50 (read-out: Assay 2b EC50) was at most 100 nM.
For `NC(COc1cc(Cl)c(-c2nnc(-c3cn4cc(C(F)(F)F)cc(Cl)c4n3)s2)cc1F)COP(=O)(O)O` (stereo not shown) [Example 82, 2-amino-3-[(5-chloro-4-{5-[8-chloro-6-(trifluoromethyl)imidazo[1,2-a]pyridin-2-yl]-1,3,4-thiadiazol-2-yl}-2-fluorophenyl)oxy]propyl dihydrogen phosphate], the EC50 (read-out: Assay 2b EC50) was at most 100 nM.
With `OC(COc1cc(Cl)c(-c2noc(-c3cn4cc(C(F)(F)F)cc(Br)c4n3)n2)cc1Cl)C(F)(F)F` (stereo not shown) [Example 294, 3-[(4-{5-[8-bromo-6-(trifluoromethyl)imidazo[1,2-a]pyridin-2-yl]-1,2,4-oxadiazol-3-yl}-2,5-dichlorophenyl)oxy]-1,1,1-trifluoropropan-2-ol] the EC50 (read-out: Assay 2b EC50) was at most 100 nM.
With `OCCNc1cc(Cl)c(-c2noc(-c3cn4cc(C(F)(F)F)cc(Cl)c4n3)n2)cc1Cl` [Entry 30] the EC50 (read-out: Assay 2b EC50) was at most 100 nM.
For `OCC(F)(F)COc1cc(Cl)c(-c2noc(-c3cn4cc(C(F)(F)F)cc(Cl)c4n3)n2)cc1Cl` [Example 311, 3-[(2,5-dichloro-4-{5-[8-chloro-6-(trifluoromethyl)imidazo[1,2-a]pyridin-2-yl]-1,2,4-oxadiazol-3-yl}phenyl)oxy]-2,2-difluoropropan-1-ol], the EC50 (read-out: Assay 2b EC50) was at most 100 nM.
In the case of `CC(O)COc1cc(Cl)c(-c2nc(-c3cn4cc(C(F)(F)F)cc(Cl)c4n3)no2)cc1Cl` (stereo not shown) [Example 178, 1-[(2,5-dichloro-4-{3-[8-chloro-6-(trifluoromethyl)imidazo[1,2-a]pyridin-2-yl]-1,2,4-oxadiazol-5-yl}phenyl)oxy]propan-2-ol], the EC50 (read-out: Assay 2b EC50) is reported as at most 100 nM.
`CS(=O)(=O)COc1cc(Cl)c(-c2noc(-c3cn4cc(C(F)(F)F)cc(Cl)c4n3)n2)cc1Cl` [Entry 12] gave an EC50 (read-out: Assay 2b EC50) of at most 100 nM.
